Data published in ChEMBL document CHEMBL3638586, “Inhibition of memapsin 1 cleavage in the treatment of diabetes” (2015).
pIC50, pKi: −log10 of the molar value.

Columns and labels:
Beta-secretase 2 = target: T1, Beta-secretase 2 (Homo sapiens, UniProt Q9Y5Z0); test: (§1) Inhibition Assay: Previously, one of the following compounds discussed below have been studied in memapsin 2 inhibition (Ghosh et al., 2008), which the others are previously unpublished. Given the closely related substrate specificity for memapsin 1 and memapsin 2, the inventors chose to screen these previously identified memapsin 2 inhibitors for lead compounds as memapsin 1 inhibitors. Recombinant memapsin 1 ectodomain was prepared as described by Turner et al. (2002) and assayed using a commercially purchased fluorescent substrate.
T1 sequence (Q9Y5Z0 whole entry): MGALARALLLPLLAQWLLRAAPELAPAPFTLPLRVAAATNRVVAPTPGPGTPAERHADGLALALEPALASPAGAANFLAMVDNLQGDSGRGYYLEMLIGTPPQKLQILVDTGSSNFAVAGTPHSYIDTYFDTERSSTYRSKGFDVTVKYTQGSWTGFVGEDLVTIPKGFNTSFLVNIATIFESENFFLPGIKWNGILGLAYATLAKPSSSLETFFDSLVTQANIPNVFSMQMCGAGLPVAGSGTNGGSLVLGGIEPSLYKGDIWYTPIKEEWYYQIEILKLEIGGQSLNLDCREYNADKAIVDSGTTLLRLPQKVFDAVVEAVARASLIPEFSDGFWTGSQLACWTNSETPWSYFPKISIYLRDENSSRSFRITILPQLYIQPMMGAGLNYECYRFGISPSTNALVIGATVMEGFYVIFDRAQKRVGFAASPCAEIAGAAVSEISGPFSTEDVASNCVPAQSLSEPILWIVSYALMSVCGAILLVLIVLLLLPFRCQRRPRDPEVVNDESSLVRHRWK

Beta-secretase 1 = Beta-secretase 1 (Homo sapiens, UniProt P56817); test: as §1
Chain of Beta-secretase 1 (P56817 whole entry): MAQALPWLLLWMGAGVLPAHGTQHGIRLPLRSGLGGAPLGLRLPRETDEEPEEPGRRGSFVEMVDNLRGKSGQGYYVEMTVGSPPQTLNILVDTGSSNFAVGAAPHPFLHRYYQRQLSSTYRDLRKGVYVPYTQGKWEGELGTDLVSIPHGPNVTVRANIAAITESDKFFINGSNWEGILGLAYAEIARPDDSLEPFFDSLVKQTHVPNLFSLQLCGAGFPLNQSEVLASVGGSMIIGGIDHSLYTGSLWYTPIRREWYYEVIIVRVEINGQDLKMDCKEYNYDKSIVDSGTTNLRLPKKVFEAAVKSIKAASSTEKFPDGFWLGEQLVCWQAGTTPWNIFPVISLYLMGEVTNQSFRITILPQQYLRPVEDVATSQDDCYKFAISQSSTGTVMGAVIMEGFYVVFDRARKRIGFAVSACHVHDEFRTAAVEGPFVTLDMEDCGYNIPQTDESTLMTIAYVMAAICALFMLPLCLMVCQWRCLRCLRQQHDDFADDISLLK

Row | pKi (Beta-secretase 2) | pKi (Beta-secretase 1) | pIC50 (Beta-secretase 2) | Structure (SMILES)
1 | 7.34 |  |  | CSC[C@H](NC(=O)C1NOC2OCCC21)C(=O)NC(CC(C)C)[C@@H](O)CC(C)C(=O)NC(C(=O)N(C)C)C(C)C (stereo partly drawn)
2 | 7.32 |  |  | NC1=Nc2ccc(Oc3ccccc3)cc2CN1C(CCC(=O)N(CC1CCC(=O)N1)C1CCCCC1)C1CCCCC1 (stereo not drawn)
3 | 7.43 |  |  | CC(C)CNC(=O)C(NCC(O)C(Cc1ccccc1)NC(=O)c1cc(C(=O)NC(C)c2ccccc2)cc(N(C)S(C)(=O)=O)c1)C(C)O (stereo not drawn)
4 | 7.71 | 8.18 |  | CCCC(O)C(NCC(O)C(Cc1ccccc1)NC(=O)c1cc(C)cc(C(=O)N2CCCC2OC)c1)C(=O)NCC(C)C (stereo not drawn)
5 | 6.28 |  |  | CCc1cn2c3c(cc(C(=O)N[C@@H](Cc4ccccc4)C(O)CNCc4cccc(C(F)(F)F)c4)cc13)N(C)S(=O)(=O)C1(CC1)C2 (stereo partly drawn)
6 | 7.28 |  |  | CC(C)CC(NC(=O)[C@H](CS(C)(=O)=O)NC(=O)C1NOC2OCCC21)[C@@H](O)CC(C)C(=O)NC(C(=O)N(C)C)C(C)C (stereo partly drawn)
7 | 10.70 | 5.28 |  | CCCC(O)C(NCC(O)C(Cc1ccccc1)NC(=O)c1cccc(C(=O)N(C)C(C)c2ccccc2)c1)C(=O)NCC(C)C (stereo not drawn)
8 | 6.46 |  |  | COCC(NC(=O)OCC(C1CCCCC1)N1Cc2cc(Oc3ccccc3)ccc2N=C1N)C(=O)N(C)C (stereo not drawn)
9 | 7.12 | 6.57 |  | CCCC(O)C(NCC(O)C(Cc1ccccc1)NC(=O)c1cccc(C(=O)N2CCCC2OC)c1)C(=O)NCC(C)C (stereo not drawn)
10 |  |  | 6.46 | COc1cccc(C(NCC(O)C(Cc2ccccc2)NC(=O)c2cc(C(=O)NC(C)c3ccccc3)cc(N(C)S(C)(=O)=O)c2)C(C)O)c1 (stereo not drawn)
11 | 9.00 | 5.78 |  | Cc1cc(C(=O)NC(Cc2ccccc2)C(O)CNC(C(=O)NCC(C)C)C(C)O)cc(C(=O)N(C)C(C)c2ccccc2)c1 (stereo not drawn)
12 |  |  | 6.15 | COc1ccc(C(C(C)O)C(Cc2ccccc2)NC(=O)c2cc(C(=O)NC(C)c3ccccc3)cc(N(C)S(C)(=O)=O)c2)cc1 (stereo not drawn)
13 | 11.85 | 6.25 |  | CCCC(O)C(NCC(O)C(Cc1ccccc1)NC(=O)c1cc(C)cc(C(=O)N(C)C(C)c2ccccc2)c1)C(=O)NCC(C)C (stereo not drawn)
14 | 7.05 |  |  | CC(C)CNC(=O)C(NCC(O)C(Cc1ccccc1)NC(=O)c1cc(C(=O)NC(C)c2ccc(I)cc2)cc(N(C)S(C)(=O)=O)c1)C(C)O (stereo not drawn)
15 | 5.22 |  |  | CC(C)CN1CCNC(C(O)C(Cc2ccccc2)NC(=O)c2cc(C(=O)NC(C)c3ccccc3)cc(N(C)S(C)(=O)=O)c2)C1 (stereo not drawn)
16 | 7.20 | 5.24 |  | CC(C)CNC(=O)C(NCC(O)C(Cc1ccccc1)NC(=O)c1cccc(C(=O)N(C)C(C)c2ccccc2)c1)C(C)O (stereo not drawn)
17 | 7.28 |  |  | Cc1ncsc1CN(C(=O)CCC(C1CCCCC1)N1Cc2cc(Oc3ccccc3)ccc2N=C1N)C1CCCCC1 (stereo not drawn)
18 | 7.96 |  |  | CCCC(O)N(NC[C@H](Cc1ccccc1)NC(=O)c1cc2c3c(c1)c(CC)cn3CC1(CC1)S(=O)(=O)N2C)C(=O)NCC(C)C (stereo partly drawn)
19 | 6.70 |  |  | CCc1cn2c3c(cc(C(=O)N[C@@H](Cc4ccccc4)[C@H](O)CNC(COC)c4cccc(C(F)(F)F)c4)cc13)N(C)S(=O)(=O)C1(CC1)C2 (stereo partly drawn)
20 |  |  | 6.30 | CC(CN1Cc2cc(Oc3ccccc3)ccc2N=C1N)C(=O)NCCC(C)(C)C (stereo not drawn)
21 | 7.52 |  |  | CCCC(O)N(NC[C@H](Cc1ccccc1)NC(=O)c1cc2c3c(c1)c(CC)cn3CC1(CC1)S(=O)(=O)N2C)C(=O)NC(C)C (stereo partly drawn)
22 | 7.15 |  |  | Cc1oncc1CN(C(=O)CCC(C1CCCCC1)N1Cc2cc(Oc3ccccc3)ccc2N=C1N)C1CCCCC1 (stereo not drawn)
